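How tested: cells in 96-well plates exposed to compound for 48 hours at five concentrations. GI50 marks 50% less growth. The concentration for full growth arrest is given as TGI.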
Experiments:
Assay in all cases: growth of human tumour cells (NCI), 48 h; in the data active means GI50 below about 0.43 µM; inactive means the rest
[1] = system: OVCAR-8 ovarian
[2] = system: NCI-H23 lung
[3] = system: SK-OV-3 ovarian
[4] = system: IGROV1 ovarian
[5] = system: OVCAR-5 ovarian
[6] = system: UACC-62 melanoma
[7] = system: SF-295 CNS
[8] = system: DU-145 prostate
[9] = system: K-562 leukemia
[10] = system: SK-MEL-5 melanoma
[11] = system: OVCAR-3 ovarian
[12] = system: UACC-257 melanoma
[13] = system: HCT-15 colon
[14] = system: EKVX NSCLC
[15] = system: HS 578T breast
[16] = system: NCI/ADR-RES ovarian
[17] = system: SNB-19 CNS
[18] = system: 786-0 renal
[19] = system: MDA-MB-435
[20] = system: SW-620 colon
[21] = system: SN12C renal
[22] = system: HOP-92 NSCLC
[23] = system: M14 melanoma
[24] = system: SK-MEL-2 melanoma
[25] = system: NCI-H460 lung
[26] = system: MALME-3M melanoma
[27] = system: HCT-116 colon
[28] = system: PC-3 prostate
[29] = system: MCF7 breast
[30] = system: NCI-H522 lung
[31] = system: NCI-H226 lung
[32] = system: KM12 colon
[33] = system: CAKI-1 renal
[34] = system: SK-MEL-28 melanoma
[35] = system: U251 CNS
[36] = system: ACHN renal
[37] = system: T-47D breast
[38] = system: SF-539 CNS
[39] = system: OVCAR-4 ovarian
[40] = system: HOP-62 NSCLC
[41] = system: HCC-2998 colon
[42] = system: HT29 colon
[43] = system: LOX IMVI melanoma
[44] = system: CCRF-CEM leukemia
[45] = system: RPMI-8226 leukemia
[46] = system: MDA-MB-231 breast
[47] = system: HL-60(TB) leukemia
[48] = system: COLO 205 colon
[49] = system: SNB-75 CNS
[50] = system: A549 NSCLC
[51] = system: MOLT-4 leukemia
[52] = system: TK-10 renal
[53] = system: UO-31 renal
[54] = system: A498 renal
[55] = system: RXF 393 renal
[56] = system: BT-549 breast
[57] = system: SR leukemia
[58] = system: SF-268 CNS

N#C/C(N)=C(\C#N)N=Cc1csc2ccccc12
inactive: GI50 [1] 20.8 µM | GI50 [2] 11.5 µM | GI50 [3] 20.2 µM | GI50 [4] 15.8 µM | GI50 [5] 67.1 µM | GI50 [6] 28.2 µM | GI50 [7] 51.5 µM | GI50 [8] 29.6 µM | GI50 [9] 95.5 µM | GI50 [10] 22.9 µM | GI50 [11] 19.1 µM | GI50 [12] > 100 µM | GI50 [13] 71.9 µM | GI50 [14] 27 µM | GI50 [15] 13.1 µM | GI50 [16] 32.4 µM | GI50 [17] 27.7 µM | GI50 [18] 34.2 µM | GI50 [19] 36.2 µM | GI50 [20] > 100 µM | GI50 [21] 26.9 µM | GI50 [22] 24.1 µM | GI50 [23] 46.8 µM | GI50 [24] > 100 µM | GI50 [25] > 100 µM | GI50 [26] 50.9 µM | GI50 [27] 26.8 µM | GI50 [28] 47.3 µM | GI50 [29] 3.41 µM | GI50 [30] 28.9 µM | GI50 [31] 19.4 µM | GI50 [32] > 100 µM | GI50 [33] 43.3 µM | GI50 [34] 37.5 µM | GI50 [35] 20.2 µM | GI50 [36] 29.9 µM | GI50 [37] 1.07 µM | GI50 [38] 20.1 µM | GI50 [39] 43.5 µM | GI50 [40] 15 µM | GI50 [41] 90.4 µM | GI50 [42] 22.2 µM | GI50 [43] 26.3 µM | GI50 [44] > 100 µM | GI50 [45] > 100 µM | GI50 [46] 15.2 µM | GI50 [47] > 100 µM | GI50 [48] 72.3 µM | GI50 [49] 12.5 µM | GI50 [50] 45.4 µM | GI50 [51] 4.08 µM | GI50 [52] 17.6 µM | GI50 [53] 91.2 µM
71.9 µM: TGI [17]
51.2 µM: TGI [2]
83.6 µM: TGI [27]
> 100 µM: TGI [5] | TGI [6] | TGI [7] | TGI [8] | TGI [9] | TGI [10] | TGI [12] | TGI [13] | TGI [14] | TGI [16] | TGI [18] | TGI [19] | TGI [20] | TGI [21] | TGI [22] | TGI [23] | TGI [24] | TGI [25] | TGI [26] | TGI [28] | TGI [29] | TGI [30] | TGI [32] | TGI [33] | TGI [34] | TGI [36] | TGI [39] | TGI [41] | TGI [42] | TGI [44] | TGI [45] | TGI [47] | TGI [48] | TGI [50] | TGI [51] | TGI [53]
67.2 µM: TGI [4]
34.6 µM: TGI [40]
66.3 µM: TGI [43]
58.9 µM: TGI [15]
31.2 µM: TGI [49]
55.7 µM: TGI [1]
45 µM: TGI [52]
45.3 µM: TGI [35]
76.3 µM: TGI [31]
47.8 µM: TGI [11]
41 µM: TGI [46]
28.5 µM: TGI [37]
50.9 µM: TGI [38]
46 µM: TGI [3]

C/C1=C/C(=O)O[C@@H]2C[C@@H](CC[C@H](C)/C=C\C=C\CC1)O[C@@](OCCc1ccccc1)([C@@H]1CSC(=O)N1)C2
2.47 µM: TGI [30]
0.074 µM: TGI [4]
> 17.5 µM: TGI [1] | TGI [2] | TGI [5] | TGI [6] | TGI [8] | TGI [9] | TGI [13] | TGI [14] | TGI [16] | TGI [17] | TGI [18] | TGI [20] | TGI [21] | TGI [23] | TGI [25] | TGI [27] | TGI [28] | TGI [29] | TGI [31] | TGI [32] | TGI [35] | TGI [36] | TGI [38] | TGI [40] | TGI [41] | TGI [57] | TGI [44] | TGI [45] | TGI [46] | TGI [47] | TGI [50] | TGI [51]
6.12 µM: TGI [19]
0.287 µM: TGI [52]
0.158 µM: TGI [55]
0.0661 µM: TGI [22]
0.173 µM: TGI [53]
0.113 µM: TGI [56]
active: GI50 [2] 0.142 µM | GI50 [3] 0.116 µM | GI50 [4] 0.0275 µM | GI50 [5] 0.0554 µM | GI50 [6] 0.104 µM | GI50 [7] 0.0383 µM | GI50 [8] 0.282 µM | GI50 [10] 0.226 µM | GI50 [11] 0.17 µM | GI50 [12] 0.175 µM | GI50 [13] 0.09 µM | GI50 [14] 0.106 µM | GI50 [15] 0.028 µM | GI50 [17] 0.12 µM | GI50 [54] 0.0313 µM | GI50 [18] 0.107 µM | GI50 [19] 0.324 µM | GI50 [21] 0.0787 µM | GI50 [22] 0.0119 µM | GI50 [23] 0.204 µM | GI50 [25] 0.27 µM | GI50 [26] 0.0694 µM | GI50 [27] 0.225 µM | GI50 [28] 0.0754 µM | GI50 [30] 0.0581 µM | GI50 [31] 0.0985 µM | GI50 [55] 0.0363 µM | GI50 [33] 0.0222 µM | GI50 [34] 0.218 µM | GI50 [35] 0.189 µM | GI50 [36] 0.0501 µM | GI50 [38] 0.0543 µM | GI50 [39] 0.225 µM | GI50 [40] 0.0777 µM | GI50 [56] 0.0404 µM | GI50 [57] 0.379 µM | GI50 [42] 0.0793 µM | GI50 [43] 0.0316 µM | GI50 [44] 0.282 µM | GI50 [58] 0.0784 µM | GI50 [46] 0.0949 µM | GI50 [48] 0.0845 µM | GI50 [49] 0.022 µM | GI50 [50] 0.0754 µM | GI50 [52] 0.0895 µM | GI50 [53] 0.0386 µM
> 5.44 µM: TGI [39]
0.943 µM: TGI [26]
inactive: GI50 [1] 1.11 µM | GI50 [9] 0.954 µM | GI50 [16] 2.95 µM | GI50 [20] 7.04 µM | GI50 [24] 0.917 µM | GI50 [29] 5.37 µM | GI50 [32] 6.19 µM | GI50 [41] 6 µM | GI50 [45] 3.28 µM | GI50 [47] 1.31 µM | GI50 [51] > 5.2 µM
> 6.42 µM: TGI [10]
0.607 µM: TGI [11]
0.0973 µM: TGI [15]
0.0597 µM: TGI [49]
0.995 µM: TGI [34]
> 4.55 µM: TGI [7]
0.0811 µM: TGI [33]
17.3 µM: TGI [12]
> 15 µM: TGI [42]
0.133 µM: TGI [54]
> 5.4 µM: TGI [3]
> 13.8 µM: TGI [24]
0.401 µM: TGI [48]
0.377 µM: TGI [58]

CCOC(=O)c1sc2nc(-c3ccccc3)nn2c1CBr
5.71 µM: TGI [37]
1.34 µM: TGI [47]
1.96 µM: TGI [9]
3.49 µM: TGI [10]
4.16 µM: TGI [28]
3.77 µM: TGI [42]
1.51 µM: TGI [57]
4.14 µM: TGI [32]
3.21 µM: TGI [21]
3.17 µM: TGI [43]
4.25 µM: TGI [45]
4.03 µM: TGI [1]
2.85 µM: TGI [23]
3.69 µM: TGI [46] | TGI [49]
4.07 µM: TGI [55]
3.88 µM: TGI [20]
4.94 µM: TGI [26]
1.18 µM: TGI [51]
4.47 µM: TGI [52]
> 10 µM: TGI [3] | TGI [4] | TGI [7] | TGI [8] | TGI [14] | TGI [40] | TGI [41] | TGI [50]
3.92 µM: TGI [12]
4.19 µM: TGI [58]
2.83 µM: TGI [33]
2.95 µM: TGI [18]
3.78 µM: TGI [2] | TGI [29]
0.642 µM: TGI [44]
3.73 µM: TGI [48]
3.41 µM: TGI [34]
